Target: T1, thrombin receptor (Homo sapiens, UniProt P25116)
T1 construct: tissue North Jersey Blood Center (East Orange, N.J.); host or cells: platelet membranes from platelet concentrates
T1 sequence (P25116 22-425): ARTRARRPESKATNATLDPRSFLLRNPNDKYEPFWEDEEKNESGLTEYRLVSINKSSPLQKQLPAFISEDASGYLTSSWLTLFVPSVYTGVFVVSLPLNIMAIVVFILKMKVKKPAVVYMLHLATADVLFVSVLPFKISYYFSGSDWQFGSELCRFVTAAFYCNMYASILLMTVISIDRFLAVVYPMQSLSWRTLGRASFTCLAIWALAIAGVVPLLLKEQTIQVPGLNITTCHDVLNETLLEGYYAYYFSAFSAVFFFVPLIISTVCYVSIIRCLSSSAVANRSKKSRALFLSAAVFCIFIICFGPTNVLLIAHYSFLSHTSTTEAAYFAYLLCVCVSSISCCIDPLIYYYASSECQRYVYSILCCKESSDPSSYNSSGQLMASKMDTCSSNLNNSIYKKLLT
Assay: High throughput thrombin receptor radioligand binding assay ([3H]haTRAP, platelet membranes)
Conditions: [3H]haTRAP binding to platelet membranes; read-out: thrombin receptor IC50 (concentration at which a 50% inhibition of thrombin receptor was observed)
Protocol: In Vitro Testing Procedure for Thrombin Receptor Antagonists:
The vessel was attached to the tritium line, frozen in liquid nitrogen and evacuated. […] At the completion of the reaction, the excess tritium was removed and the reacted peptide solution was diluted with DMF (0.5 ml) and filtered to remove the catalyst. The collected DMF solution of the crude peptide was diluted with water and freeze dried to remove the labile tritium. The solid peptide was redissolved in water and the freeze drying process repeated.
All steps were carried out at 4° C. under approved biohazard safety conditions. Platelets were centrifuged at 100×g for 20 minutes at 4° C. to remove red cells. The supernatants were decanted and centrifuged at 3000×g for 15 minutes to pellet platelets. […] This step was repeated two additional times. […] To complete membrane preparation, aliquots were thawed, pooled, and homogenized with 5 strokes of a Dounce homogenizer. Membranes were pelleted and washed 3 times in 10 mM triethanolamine-HCl, pH 7.4, 5 mM EDTA, and resuspended in 20-25 ml 50 mM Tris-HCl, pH 7.5, 10 mM MgCl2, 1 mM EGTA, and 1% DMSO.
High Throughput Thrombin Receptor Radioligand Binding Assay
Stock solutions (10 mM in 100% DMSO) of test compounds were further diluted in 100% DMSO. Unless otherwise indicated, 10 μl of diluted compound solutions and 90 μl of radioligand (a final concentration of 10 nM in 5% DMSO) were added to each well, and the reaction was started by the addition of 100 μl of membranes (40 μg protein/well). […] Compounds were tested at three concentrations (0.1, 1 and 10 μM).

| Compound | IC50 |
| --- | --- |
| CC[C@H]1[C@H](/C=C/c2ccc(-c3ccccc3)cn2)[C@@H]2[C@@H](C)OC(=O)[C@]2(C(N)=O)C[C@@H]1C [Example 17H] | 1 to 100 nM |
| C[C@H]1[C@H](/C=C/c2ccc(-c3ccccc3)cn2)[C@@H]2[C@@H](C)OC(=O)[C@]2(N)C[C@@H]1C [Example 20E] | 1 to 100 nM |
| C[C@H]1[C@H](/C=C/c2ccc(-c3cccc(F)c3)cn2)[C@@H]2[C@@H](C)OC(=O)[C@]2(N)C[C@@H]1C [Example 20F] | 1 to 100 nM |
| C[C@H]1[C@H](/C=C/c2ccc(-c3cccc(C#N)c3)cn2)[C@@H]2[C@@H](C)OC(=O)[C@]2(N)C[C@@H]1C [Example 20G] | 1 to 100 nM |
| C[C@H]1[C@H](/C=C/c2ccc(-c3ccccc3C#N)cn2)[C@@H]2[C@@H](C)OC(=O)[C@]2(N)C[C@@H]1C [Example 20H] | 1 to 100 nM |

— US7488742B2, “Thrombin receptor antagonists” (Schering Corporation, priority 2000, dated 2009)
